Laboratory results reported in patent US9096500B2, “Acyl sulfonamide compounds” (Pfizer Limited, priority 2010, dated 2015).
Structures can show the parent of a compound that is named as a salt.

Molecular target: T1, Nav1.7 (or SCN9A) channel (Homo sapiens, UniProt Q15858)
T1 construct: expressed in transfected cells
Assay: Nav1.7 (hSCN9A) electrophysiology assay, PatchXpress platform
Format: cell-based
Conditions: estimated IC50 from single point electrophysiology data, HEK cells stably expressing hSCN9A, held at V1/2 of inactivation, read-out: Nav1.7 EIC50
Outline: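 HEK cells stably expressing hSCN9A were recorded by whole-cell voltage clamp, including on PatchXpress, at 22–24°C with extracellular solution at pH 7.4. A 20 msec step to 0 mV followed an 8 s conditioning prepulse to the empirically determined inactivation V1/2. Inhibition was taken from current amplitude before vs after compound.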

T1 sequence (Q15858 whole entry): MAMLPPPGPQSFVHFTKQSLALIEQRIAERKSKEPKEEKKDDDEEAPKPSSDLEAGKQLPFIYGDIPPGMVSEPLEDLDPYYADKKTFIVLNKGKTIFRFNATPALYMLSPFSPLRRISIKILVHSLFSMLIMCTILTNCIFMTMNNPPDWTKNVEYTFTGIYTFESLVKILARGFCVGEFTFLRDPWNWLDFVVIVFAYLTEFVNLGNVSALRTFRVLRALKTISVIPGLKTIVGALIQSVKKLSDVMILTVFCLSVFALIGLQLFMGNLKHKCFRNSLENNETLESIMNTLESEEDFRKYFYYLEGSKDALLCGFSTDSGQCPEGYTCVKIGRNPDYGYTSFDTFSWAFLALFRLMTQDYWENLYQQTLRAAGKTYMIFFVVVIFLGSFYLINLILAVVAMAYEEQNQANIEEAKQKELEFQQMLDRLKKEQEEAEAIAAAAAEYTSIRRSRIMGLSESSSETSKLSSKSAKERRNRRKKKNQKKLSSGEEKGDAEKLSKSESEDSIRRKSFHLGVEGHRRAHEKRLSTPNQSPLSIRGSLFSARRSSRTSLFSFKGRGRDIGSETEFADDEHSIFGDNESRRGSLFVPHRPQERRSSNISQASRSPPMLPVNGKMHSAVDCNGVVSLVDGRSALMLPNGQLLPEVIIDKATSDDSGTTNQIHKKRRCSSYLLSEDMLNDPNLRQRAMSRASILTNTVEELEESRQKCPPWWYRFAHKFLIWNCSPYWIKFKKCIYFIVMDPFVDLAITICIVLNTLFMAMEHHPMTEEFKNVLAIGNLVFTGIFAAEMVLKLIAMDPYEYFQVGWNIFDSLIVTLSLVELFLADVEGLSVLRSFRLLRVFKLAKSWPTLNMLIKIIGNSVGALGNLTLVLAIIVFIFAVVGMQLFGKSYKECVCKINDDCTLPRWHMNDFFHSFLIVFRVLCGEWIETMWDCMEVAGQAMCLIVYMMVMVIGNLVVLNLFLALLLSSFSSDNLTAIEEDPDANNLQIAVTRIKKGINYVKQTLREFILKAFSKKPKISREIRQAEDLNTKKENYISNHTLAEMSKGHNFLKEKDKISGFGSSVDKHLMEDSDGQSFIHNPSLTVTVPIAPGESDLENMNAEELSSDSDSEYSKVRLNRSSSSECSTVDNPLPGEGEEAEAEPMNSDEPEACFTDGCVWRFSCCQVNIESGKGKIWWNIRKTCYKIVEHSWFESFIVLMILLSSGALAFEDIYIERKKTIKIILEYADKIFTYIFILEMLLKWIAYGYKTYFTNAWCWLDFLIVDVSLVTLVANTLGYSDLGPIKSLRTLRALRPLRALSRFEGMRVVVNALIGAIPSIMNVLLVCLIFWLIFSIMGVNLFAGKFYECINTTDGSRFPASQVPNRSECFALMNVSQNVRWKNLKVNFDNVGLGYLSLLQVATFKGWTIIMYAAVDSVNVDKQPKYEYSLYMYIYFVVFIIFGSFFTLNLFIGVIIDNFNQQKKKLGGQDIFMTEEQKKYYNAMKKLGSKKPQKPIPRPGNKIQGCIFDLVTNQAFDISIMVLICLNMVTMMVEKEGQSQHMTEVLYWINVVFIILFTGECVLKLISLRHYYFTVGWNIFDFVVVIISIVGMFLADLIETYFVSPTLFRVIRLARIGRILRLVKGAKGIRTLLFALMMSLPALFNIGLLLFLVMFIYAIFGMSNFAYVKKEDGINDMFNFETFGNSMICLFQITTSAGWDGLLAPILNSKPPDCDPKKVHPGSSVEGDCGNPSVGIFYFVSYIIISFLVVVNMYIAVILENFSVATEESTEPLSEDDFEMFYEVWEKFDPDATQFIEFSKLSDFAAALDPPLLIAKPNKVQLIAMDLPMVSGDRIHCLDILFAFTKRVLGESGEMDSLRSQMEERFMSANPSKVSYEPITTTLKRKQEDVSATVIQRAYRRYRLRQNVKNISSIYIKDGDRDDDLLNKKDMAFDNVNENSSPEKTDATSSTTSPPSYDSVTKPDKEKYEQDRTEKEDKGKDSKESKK

Work on CS(=O)(=O)NC(=O)c1cc(F)c(COc2ccc(C#N)cc2Cl)cc1F [Example 44, 4-[(2-Chloro-4-cyanophenoxy)methyl]-2,5-difluoro-N-(methylsulfonyl)benzamide] yielded an IC50 of 2 µM.

CS(=O)(=O)NC(=O)c1cc(F)c(COc2ccc(C(F)(F)F)c(Cl)c2)cc1F [Example 2, 4-{[3-Chloro-4-(trifluoromethyl)phenoxy]methyl}-2,5-difluoro-N-(methylsulfonyl)benzamide] was tested, and the IC50 was 0.064 µM.

With Cc1cc(Cl)c(OCc2cc(F)c(C(=O)NS(C)(=O)=O)cc2F)cc1C#N [Example 131, 4-[(2-chloro-5-cyano-4-methylphenoxy)methyl]-2,5-difluoro-N-(methylsulfonyl)benzamide] the IC50 was > 1 µM.

Work on CS(=O)(=O)NC(=O)c1cc(F)c(COc2c(F)ccc(F)c2F)cc1F [Example 140, 2,5-difluoro-N-(methylsulfonyl)-4-[(2,3,6-trifluorophenoxy)methyl]benzamide] yielded an IC50 of 2.2 µM.

COc1cc(COc2ccc(Cl)c(Cl)c2)ccc1C(=O)NS(C)(=O)=O [Example 30, 4-[(3,4-Dichlorophenoxy)methyl]-2-methoxy-N-(methylsulfonyl)benzamide] gave an IC50 of 1.9 µM.

CS(=O)(=O)NC(=O)c1ccc(OCc2ccc(Cl)cc2Cl)cc1 [Example 190, 4-[(2,4-dichlorobenzyl)oxy]-N-(methylsulfonyl)benzamide] was tested, and the IC50 was 0.62 µM.

CS(=O)(=O)NC(=O)c1cc(F)c(OCc2ccc(C(F)(F)F)c(Cl)c2)cc1F [Example 10, 4-(3-Chloro-4-(trifluoromethyl)benzyloxy)-2,5-difluoro-N-(methylsulfonyl)benzamide] showed an IC50 of 1.5 µM.

Molecule CS(=O)(=O)NC(=O)c1ccc(OCc2ccccc2)cc1 [Example 20, 4-(Benzyloxy)-N-(methylsulfonyl)benzamide Diethylamine salt] has an IC50 of 2.4 µM.

CS(=O)(=O)NC(=O)c1cc(F)c(COc2cc(F)ccc2F)cc1F [Example 55, 4-[(2,5-Difluorophenoxy)methyl]-2,5-difluoro-N-(methylsulfonyl)benzamide] showed an IC50 of 0.57 µM.

For CS(=O)(=O)NC(=O)c1cc(F)c(OCc2ccccc2F)cc1F [Example 199, 2,5-difluoro-4-[(2-fluorobenzyl)oxy]-N-(methylsulfonyl)benzamide], the IC50 was 2.4 µM.

COc1cc(C(=O)NS(C)(=O)=O)ccc1COc1ccc(Cl)c(Cl)c1 [Example 19, 4-((3,4-Dichlorophenoxy)methyl)-3-methoxy-N-(methylsulfonyl)benzamide] was tested, and the IC50 was 0.058 µM.

COc1ccc(Cl)cc1COc1ccc(C(=O)NS(C)(=O)=O)cc1 [Example 223, 4-[(5-chloro-2-methoxybenzyl)oxy]-N-(methylsulfonyl)benzamide] was tested, and the IC50 was > 0.3 µM.

CS(=O)(=O)NC(=O)c1cc(F)c(COc2ccc(OC(F)(F)F)c(Cl)c2)cc1F [Example 53, 4-((3-Chloro-4-(trifluoromethoxy)phenoxy)methyl)-2,5-difluoro-N-(methylsulfonyl)benzamide] gave an IC50 of 0.013 µM.

With CS(=O)(=O)NC(=O)c1cc(F)c(OCc2cccc(F)c2)cc1F [Example 195, 2,5-difluoro-4-[(3-fluorobenzyl)oxy]-N-(methylsulfonyl)benzamide] the IC50 was > 3 µM.

CS(=O)(=O)NC(=O)c1cc(F)c(COc2ccc(Cl)c(OC(F)F)c2)cc1F [Example 50, 4-{[4-chloro-3-(difluoromethoxy)phenoxy]methyl}-2,5-difluoro-N-(methylsulfonyl)benzamide] gave an IC50 of 0.22 µM.

With CS(=O)(=O)NC(=O)c1cc(F)c(OCc2cccc(Cl)c2)cc1F [Example 207, 4-[(3-chlorobenzyl)oxy]-2,5-difluoro-N-(methylsulfonyl)benzamide] the IC50 was > 0.3 µM.

CS(=O)(=O)NC(=O)c1cc(F)c(COc2ccc(Cl)c(C#N)c2)cc1F [Example 47, 4-[(4-Chloro-3-cyanophenoxy)methyl]-2,5-difluoro-N-(methylsulfonyl)benzamide] gave an IC50 of 1.4 µM.

CS(=O)(=O)NC(=O)c1cc(F)c(COc2cccc(OC(F)(F)F)c2)cc1F [Example 56, 4-[(3-Trifluoromethoxy)methyl]-2,5-difluoro-N-(methylsulfonyl)benzamide] gave an IC50 of 0.088 µM.

Molecule CS(=O)(=O)NC(=O)c1cc(F)c(OCc2ccc(Cl)c(C(F)(F)F)c2)cc1F [Example 70, 4-(4-Chloro-3-(trifluoromethyl)benzyloxy)-2,5-difluoro-N-(methylsulfonyl) benzamide] has an IC50 of 0.16 µM.

Work on CS(=O)(=O)NC(=O)c1cc(Cl)c(OCc2ccc(-c3ccccc3)cc2)cc1F [Example 83, 4-(biphenyl-4-ylmethoxy)-5-chloro-2-fluoro-N-(methylsulfonyl)benzamide] yielded an IC50 of 0.62 µM.

Cc1cc(OCc2cc(F)c(C(=O)NS(C)(=O)=O)cc2F)cc(C)c1C#N [Example 162, 4-[(4-cyano-3,5-dimethylphenoxy)methyl]-2,5-difluoro-N-(methylsulfonyl)benzamide] gave an IC50 of 0.73 µM.

In the case of CS(=O)(=O)NC(=O)c1cc(F)c(COc2ccc(F)c(C#N)c2)cc1F [Example 125, 4-[(3-cyano-4-fluorophenoxy)methyl]-2,5-difluoro-N-(methylsulfonyl)benzamide], the IC50 is reported as 1.4 µM.

CS(=O)(=O)NC(=O)c1cc(F)c(COc2ccc(OC(F)F)c(Cl)c2)cc1F [Example 52, 4-{[3-Chloro-4-(difluoromethoxy)phenoxy]methyl}-2,5-difluoro-N-(methylsulfonyl)benzamide] showed an IC50 of 0.13 µM.

With COc1cccc(COc2ccc(C(=O)NS(C)(=O)=O)cc2)c1 [Example 82, 4-[(3-methoxybenzyl)oxy]-N-(methylsulfonyl)benzamide] the IC50 was 5.5 µM.

In the case of Cc1cccc(COc2cc(F)c(C(=O)NS(C)(=O)=O)cc2F)c1 [Example 217, 2,5-difluoro-4-[(3-methylbenzyl)oxy]-N-(methylsulfonyl)benzamide], the IC50 is reported as > 1 µM.

COc1cccc(OCc2ccc(C(=O)NS(C)(=O)=O)cc2)c1 [Example 8, 4-[(3-Methoxyphenoxy)methyl]-Nethylsulfonyl)benzamide diethylamine salt] showed an IC50 of 6.9 µM.

With CS(=O)(=O)NC(=O)c1cc(Cl)c(COc2ccc(Cl)c(Cl)c2)cc1F [Example 1, 5-Chloro-4-[(3,4-dichlorophenoxy)methyl]-2-fluoro-N-(methylsulfonyl)benzamide] the IC50 was 0.0095 µM.

CS(=O)(=O)NC(=O)c1ccc(OCc2ccc(Cl)c(F)c2)cc1 [Example 178, 4-[(4-chloro-3-fluorobenzyl)oxy]-N-(methylsulfonyl)benzamide] gave an IC50 of 0.81 µM.

With CS(=O)(=O)NC(=O)c1cc(Cl)c(OCc2ccccc2-c2ccccc2)cc1F [Example 87, 4-(biphenyl-2-ylmethoxy)-5-chloro-2-fluoro-N-(methylsulfonyl)benzamide] the IC50 was 0.64 µM.

For COc1ccc(OCc2cc(F)c(C(=O)NS(C)(=O)=O)cc2F)c(Cl)c1 [Example 157, 4-[(2-chloro-4-methoxyphenoxy)methyl]-2,5-difluoro-N-(methylsulfonyl)benzamide], the IC50 was 2.1 µM.

For CS(=O)(=O)NC(=O)c1ccc(OCc2ccc(Cl)cc2F)cc1 [Example 213, 4-[(4-chloro-2-fluorobenzyl)oxy]-N-(methylsulfonyl)benzamide], the IC50 was > 0.3 µM.

With COc1ccc(C)cc1COc1ccc(C(=O)NS(C)(=O)=O)cc1 [Example 210, 4-[(2-methoxy-5-methylbenzyl)oxy]-N-(methylsulfonyl)benzamide] the IC50 was > 1 µM.

With CS(=O)(=O)NC(=O)c1ccc(OCC2CCCCC2)cc1 [Example 174, 4-(cyclohexylmethoxy)-N-(methylsulfonyl)benzamide] the IC50 was 1.3 µM.

For CS(=O)(=O)NC(=O)c1ccc(OCc2ccccc2C(F)(F)F)cc1 [Example 183, N-(methylsulfonyl)-4-{[2-(trifluoromethyl)benzyl]oxy}benzamide], the IC50 was 4.3 µM.

Work on CS(=O)(=O)NC(=O)c1ccc(COc2ccc(C#N)cc2)cc1 [Example 17, 4-((4-Cyanophenoxy)methyl)-N-(methylsulfonyl)benzamide] yielded an IC50 of 8.4 µM.

CS(=O)(=O)NC(=O)c1ccc(OCc2ccc(Cl)cc2)c(Cl)c1 [Example 73, 3-chloro-4-[(4-chlorobenzyl)oxy]-N-(methylsulfonyl)benzamide] was tested, and the IC50 was 6.4 µM.

With CS(=O)(=O)NC(=O)c1cc(Cl)c(COc2ccc(Cl)c(OC(F)F)c2)cc1F [Example 62, 5-Chloro-4-{[4-chloro-3-(difluoromethoxy)phenoxy]methyl}-2-fluoro-N-(methylsulfonyl)benzamide] the IC50 was < 3 µM.

With CCc1ccc(OCc2ccc(C(=O)NS(C)(=O)=O)c(OC)c2)cc1 [Example 41, 4-[(4-Ethylphenoxy)methyl]-2-methoxy-N-(methylsulfonyl)benzamide diethylamine salt] the IC50 was 3.7 µM.

With CS(=O)(=O)NC(=O)c1cc(Cl)c(OCc2ccccc2Cl)cc1F [Example 78, 5-chloro-4-[(2-chlorobenzyl)oxy]-2-fluoro-N-(methylsulfonyl)benzamide] the IC50 was 0.39 µM.

With CS(=O)(=O)NC(=O)c1ccc(OCc2ccc(F)c(F)c2)cc1 [Example 177, 4-[(3,4-difluorobenzyl)oxy]-N-(methylsulfonyl)benzamide] the IC50 was 2.1 µM.

For CS(=O)(=O)NC(=O)c1cc(F)c(COc2ccc(C#N)c(C(F)(F)F)c2)cc1F [Example 101, 4-{[4-cyano-3-(trifluoromethyl)phenoxy]methyl}-2,5-difluoro-N-(methylsulfonyl)benzamide], the IC50 was 1.9 µM.

CS(=O)(=O)NC(=O)c1ccc(OCc2cccc3ccccc23)c(C#N)c1 [Example 5, 3-Cyano-N-(methylsulfonyl)-4-(1-naphthylmethoxy)benzamide] showed an IC50 of 1.7 µM.

CS(=O)(=O)NC(=O)c1ccc(OCc2cccc(Cl)c2)cc1 [Example 91, 4-[(3-chlorobenzyl)oxy]-N-(methylsulfonyl)benzamide] showed an IC50 of 3.5 µM.

CS(=O)(=O)NC(=O)c1cc(F)c(COc2cccc(N3CCCCC3)c2)cc1F [Example 168, 2,5-difluoro-N-(methylsulfonyl)-4-[(3-piperidin-1-ylphenoxy)methyl]benzamide] gave an IC50 of 3.1 µM.
